From patent US7230033B2, “Pest control compositions and methods for their use” (United States of America as represented by the Secretary of …, priority 2000, dated 2007) come the findings set out here.

In series [1] the test system is ticks, fleas, and mosquitoes. The experiment in a line: Pesticidal activity against all three arthropods, general statements (Examples 9, 17). The class given is in vivo. Particulars: 24 hours exposure; initial screenings. On the procedure: Concentrations of the compounds were prepared by 2-fold serial dilutions of a 0.5% (wt:vol) solution of the extracts in acetone (see, e.g., Panella et al., J. Med. Entomol., 42(3):352-358, 2005). The approximate toxicity of individual compounds and compounds in combination was determined with a total of 8 doses ranging from 0.002% to 0.25%. […] A control treated with acetone only was run with each series. Tick and flea susceptibility was evaluated using a modification of the disposable pipette method of Barnard et al. (J. Econ. Entomol., 74:466–69, 1981) and Maupin and Piesman (J. Med. Entomol., 31:319–321, 1994).
(§1) Briefly, groups of 10 nymphal I. scapularis and X. cheopis fleas were used in all tests (more than a total of 5,240 nymphs and 4,860 fleas were exposed to the compounds). The inner surface of 2-dram friction cap vials were treated with the compound/acetone solution, or acetone only as a control, and left to air-dry overnight (see also, Panella et al., J. Med. Entomol., 42(3):352-358, 2005. Three to 4 holes were made in the plastic cap to allow for air exchange. Nymphal ticks and adult fleas were then placed directly into the vials using forceps. Vials containing ticks or fleas were placed in desiccators for 24 h at 21° C. and 90% RH. Morbidity and mortality was recorded at 1, 2, 4, 8, and 24 h after initial exposure.
Adult mosquitoes were tested using the bottle bioassay method of Brogden and McAllister (J. Am. Mosq. Control Assoc., 14:159–64, 1998) with minor modifications. Natural product extracts were two-fold serially diluted for a total of 8 concentrations ranging from 0.002% to 0.25% in 1.5 ml of acetone. Individual dilutions were added to 250 ml Wheaton glass bottles and capped. Bottles were manipulated to evenly coat all inner surfaces. The caps were removed and bottles were allowed to air-dry overnight. […] Morbidity and mortality were recorded at 15, 30, 45, and 60 min and 24 hour intervals. […] The dose-mortality data was evaluated with probit analysis, using the LdP Line software, to determine LC50 and LC90 values.

The test system of series [2] is nymphal Ixodes scapularis. The experiment in a line: Treated-vial biocidal screening with 2% acetone solutions (Example 2), tick nymphs. The class given is in vivo. Particulars: treated vials sat 72 h; arthropods added for the final 24 h. How it is done:
(§2) Samples of the compounds listed below were obtained as described in Example 1, and screened for biocidal activities against nymphal Ixodes scapularis. In this example, 2% acetone solutions (wt/vol) of the compounds were applied to inner surfaces of 2-dram friction cap vials. Vials and caps were treated then allowed to dry for a minimum of 4 hours before placing 10 nymphs in each container. These same vials were used to challenge additional nymphs and adult I. scapularis ticks and adult Xenopsylla cheopis fleas through five weeks to observe any possible residual activity.
(§3) Numbers in parentheses refer to length of treatment in terms of hours (h) or weeks (wk). Data is presented in terms of number killed/number tested. For test periods longer than 24 hours, the treated vials were allowed to sit for the stated period after drying (72 h, 4 wk, or 5 wk) and each group of arthropods was added to the vials for the final 24 h of the test period.

Series [3] concerns adult I. scapularis ticks. The experiment in a line: Treated-vial biocidal screening with 2% acetone solutions (Example 2), adult ticks, residual. The class given is in vivo, Ixodes scapularis. The following applies: treated vials sat 4 wk; arthropods added for the final 24 h. On the procedure:
as §2, §3

Series [4] relates to adult Xenopsylla cheopis fleas. The experiment in a line: Treated-vial biocidal screening with 2% acetone solutions (Example 2), adult fleas, residual. The class given is in vivo. Particulars: treated vials sat 5 wk; arthropods added for the final 24 h. How it is done: as §2, §3
The subject of another series is I. scapularis nymphs. The experiment in a line: Tick bioassay, treated 2-dram vials, probit analysis. Format: in vivo, Ixodes scapularis. The following applies: 24 h exposure; for Slope: probit; for LC50 / LC90: NE = not effective at concentrations tested. An excerpt:
A control treated with acetone only was run with each series.
For each time point, if ticks and fleas were incapable of movement, maintaining normal posture, leg coordination, ability to right themselves, or any signs of life, they were considered moribund or dead.

The test system of another series is X. cheopis adults. As to the kind of experiment: Flea bioassay, treated 2-dram vials, probit analysis. Format: in vivo, Xenopsylla cheopis. Particulars: 24 h exposure; for Slope: probit; for LC50: NE = not effective at concentrations tested. How it is done:
Med. […] A control treated with acetone only was run with each series. Tick and flea susceptibility was evaluated using a modification of the disposable pipette method of Barnard et al. (J. Econ. Entomol., 74:466-69, 1981) and Maupin and […]. Med. […] The inner surface of 2-dram friction cap vials were treated with the compound/acetone solution, or acetone only as a control, and left to air-dry overnight (see also, […] et al., J. Med. […] Three to 4 holes were made in the plastic cap to allow for air exchange. Nymphal ticks and adult fleas were then placed directly into the vials using forceps. […] For each time point, if ticks and fleas were incapable of movement, maintaining normal posture, leg coordination, ability to right themselves, or any signs of life, they were considered moribund or dead.

The test system of the next series is Ae. aegypti adults. The experiment in a line: Adult mosquito bottle bioassay. Format: in vivo, Aedes aegypti. Particulars: 24 h exposure; for LC50 / LC90: NE = not effective at concentrations tested; for Slope: probit. On the procedure: (§4) Adult mosquitoes were tested using the bottle bioassay method of Brogden and McAllister (J. Am. Mosq. Control Assoc., 14:159–64, 1998) with minor modifications. Natural product extracts were two-fold serially diluted for a total of 8 concentrations ranging from 0.002% to 0.25% in 1.5 ml of acetone. Individual dilutions were added to 250 ml Wheaton glass bottles and capped. Bottles were manipulated to evenly coat all inner surfaces. The caps were removed and bottles were allowed to air-dry overnight. Once bottles were completely dry, 10–50 (in some tests 25–50) adult mosquitoes were aspirated into the bottles. Mosquitoes were held in the bottles for 24 h at 23° C. and 85% RH. Morbidity and mortality were recorded at 15, 30, 45, and 60 min and 24 hour intervals. One bottle for each replicate was treated with acetone only and served as a control. The dose-mortality data was evaluated with probit analysis, using the LdP Line software, to determine LC50 and LC90 values.
Carvacrol was combined with compound 7, 9, or 10 at a 1:1 ratio (7.5 μl of carvacrol:7.5 μl of compound 7, 9, or 10 was added to 2,985 μl of acetone for a 0.5% solution, from which serial dilutions were made), and tested as previously described against nymphal ticks and adult and larval mosquitoes.

In another series the test system is Ixodes scapularis nymphs. As to the kind of experiment: Residual activity, aged treated vials, ticks. The class given is in vivo. The following applies: 1 week after treatment. On the procedure:
as §1

The subject of another series is Aedes aegypti adults. The experiment in a line: Residual activity, aged treated bottles, mosquitoes. The class given is in vivo. Particulars: 1 week after treatment. How it is done:
as §4

The test system of series [5] is ticks, fleas, and mosquitoes. The experiment in a line: Residual activity, general statements (Examples 9, 17). The class given is in vivo. The following applies: ticks.
Series [6] relates to ticks, fleas and mosquitoes. The experiment in a line: Example 2 bioassay, qualitative comparison on ticks, fleas and mosquitoes (Examples 4, 6). The class given is in vivo. On the procedure:
as §2
Nootkatol was tested using the bioassay presented in Example 2.
Two nootkatone samples were compared to nootkatone isolated from Alaska yellow cedar using the method presented in Example 1. The first sample was a natural extract of nootkatone taken from grapefruit oil purchased commercially. The second sample was a synthetically produced nootkatone purchased commercially.
Both samples were compared to the nootkatone originating from Alaska yellow cedar in terms of their biocidal activities. Using a bioassay method similar to that presented in Example 2, no qualitative differences were discernible among the nootkatone samples in terms of their biocidal effect on ticks, fleas and mosquitoes.

For series [7], the system named is Ixodes scapularis nymphal ticks. As to the kind of experiment: Tick repellency bioassay. Format: in vivo. Particulars: combinations 1:1 by weight. The text has this: One-hundred (100) μl of test compound was pipetted onto a cotton-tipped applicator mounted to the bottom center of a 1 dram glass shell vial using non-toxic modeling clay. A total of 8 concentrations were screened with doses ranging from 0.04–5.0%. Applicators treated with acetone only served as controls. A line was drawn around the perimeter of the vial immediate to the base of the treated cotton portion of the applicator. The area above the line was designated the “repellent zone”. The vial was allowed to air-dry 1 h before a single tick was introduced. Vials were covered with a single piece of mesh and fitted with a hollowed-out plastic cap to cover the opening of the vial; this prevented the tick from escaping but allowed for air exchange. Vials were breathed upon by investigators at 1 min intervals and a hand was placed over the test vials to provide stimuli for ticks to pass into the repellent zone. […] If the tick crossed over and remained in the “repellent zone” for ≧5 sec, the tick was deemed non-repelled by the test compound. Each test was replicated 10 times using a new tick for each test. Repellent activity was determined at 1, 2, 3, and 4 h after treatment. Probit analysis was used to determine repellent efficacy (RD50 and RD95).

In series [8] the test system is ticks, fleas, formicids and termites. The experiment in a line: Persistence of biocidal activity in vials treated with 2% solutions (Example 5). Particulars: at 11 weeks. The class given is in vivo. How it is done: as §2
Persistence of biocidal activity was determined for nootkatone and valencene-11,12-epoxide by using the vials as treated with the 2% solutions of Example 2. This bioassay employed groups of ticks, fleas, formicids and termites using a method similar to that described in Example 2. […] At 11 weeks, the biocidal activity began to dissipate below the 100% mortality level.

Regarding `CC1=CCC2C(C1)C2(C)C` (centres unmarked) [Compound 1, 3-Carene], the pesticidal activity result in series [1] was “no pesticidal activity”.

Consider `CC1=CCC(O)(C(C)C)CC1` (centres unmarked) [Compound 2, Terpinen-4-ol], for which, in series [1], the pesticidal activity result was “no pesticidal activity”.

As for `COc1cc(C(C)C)ccc1C` [Compound 3, Methyl carvacrol], the pesticidal activity entry in [1] was “no pesticidal activity”.

`C=C(C)[C@@H]1CCC2=CCC[C@@H](C)[C@]2(C)C1` [Compound 5, Valencene]: the “I. scapularis nymphs (72 h), number killed/number tested” value in series [2] was 0/5. Further, the “I. scapularis adults (4 wk), number killed/number tested” value in series [3] is recorded as 0/5. Besides, in series [4], the “X. cheopis adults (5 wk), number killed/number tested” value is given as 0/5. For the same compound, the values for the Slope with I. scapularis nymphs, in the series with X. cheopis adults and in the series with Ae. aegypti adults were 0.684, 6.925 and 3.199, respectively. Further, in the series on Ae. aegypti adults, the LC50 was 0.015 percent concentration, wt:vol. Further, in the series with Ae. aegypti adults, the LC90 was 0.037 percent concentration, wt:vol.

Turning to `C=C(C)C1CC=C2C=CCC(C)C2(C)C1` (centres unmarked) [Compound 6, Nootkatene], the “I. scapularis nymphs (72 h), number killed/number tested” value in [2] is listed as 4/5. Further, the “I. scapularis adults (4 wk), number killed/number tested” value in [3] is 0/5. Also, in [4], the “X. cheopis adults (5 wk), number killed/number tested” value is reported as 0/5. In the series on I. scapularis nymphs, the LC50 is 0.011 percent concentration, wt:vol; the LC90 is on record as 0.06 percent concentration, wt:vol; the Slope was 1.763. Besides, in the series with X. cheopis adults, the LC50 is 0.017 percent concentration, wt:vol and the Slope stood at 2.022. In addition, in the series on Ae. aegypti adults, the LC50 is listed as 0.027 percent concentration, wt:vol and the Slope came to 3.696. In the series on Ixodes scapularis nymphs, the “Slope, residual activity” value is 0.533. In the series with Aedes aegypti adults, the “LC90, residual activity” value is on record as 0.659 percent concentration, wt:vol and the “Slope, residual activity” value is reported as 1.833. In addition, the residual activity result in series [5] is reported as “did not demonstrate any residual activity after one week”.

For the compound `C=C(C)[C@@H]1CCC2=C[C@@H](O)C[C@@H](C)[C@]2(C)C1` [Compound 12, Nootkatol], in series [6], the “biocidal activity compared with nootkatene” value is “essentially equivalent to the activity of nootkatene”. Further, the LC50 in the series with I. scapularis nymphs is 0.023 percent concentration, wt:vol; in the series on X. cheopis adults, 0.024 percent concentration, wt:vol; in the series on Ae. aegypti adults, 0.004 percent concentration, wt:vol. The LC90 is given as 0.059 percent concentration, wt:vol in the series on I. scapularis nymphs and 0.01 percent concentration, wt:vol with Ae. aegypti adults. In addition, the figures for the Slope in the series with I. scapularis nymphs, in the series with X. cheopis adults and in the series with Ae. aegypti adults were 3.069, 2.101 and 3.201, respectively. Further, the RD50 in series [7] (1 hr) is reported as 0.047 % (w/v); in series [7] (4 hr), 0.320 % (w/v).

`C[C@@H]1CCC=C2CCC(C3(C)CO3)C[C@]21C` (some centres unmarked) [Compound 13, valencene-11,12-epoxide]: the mortality level in series [8] is less than 100%. Besides, in the series on I. scapularis nymphs, the LC50 is 21.219 percent concentration, wt:vol; the LC90 is 3713.114 percent concentration, wt:vol; the Slope worked out at 0.571. Moreover, in the series with Ae. aegypti adults, the Slope is 1.581.
